Measurements published in patent publication EP4722219A1 (Gan & Lee Pharmaceuticals Co., Ltd., priority 2023, dated 2024).

What was measured:
Type in all cases: cell-based
[1] = test system: VCaP cells; experiment: Inhibition of VCaP cell proliferation (WST-8); conditions: Homo sapiens, 168 hours
Experimental: On the first day of the experiment, VCaP cells were seeded at a density of 15,000 cells/well in a 96-well plate using DMEM medium containing 10% fetal bovine serum, with 100µL of cell suspension per well, and cultured overnight in a cell incubator at 37°C and 5% CO2. On the second day, 100µL of the compound of the present invention and the positive control ARV-110 (source: Anaiji) prepared in culture medium at different concentrations were added to each well. The final concentration of the compound was 9 concentration points of 5-fold serial dilution starting from 10 µM. […] On the ninth day, the 96-well cell culture plate was removed and 1/10 volume of WST-8 (Beytime, C0040) reagent was added to each well. The absorbance at 450nm was measured using a microplate reader (TECAN, F50).

[2] = test system: LNCaP cells; experiment: Inhibition of LNCaP cell proliferation (WST-8); conditions: Homo sapiens, LNCaP FGC cells, 96 hours
Experimental: The inhibitory activity of compounds disclosed in the present invention on LNCaP cell proliferation
The cells were cultured overnight in a 37°C, 5% CO2 cell incubator. […] The final concentration of the compound was 9 concentration points of 5-fold serial dilution starting from 10 µM. […] The cells were cultured in a cell culture incubator at 37°C and 5% CO2 for 96 hours. On the sixth day, the 96-well cell culture plate was removed, and 1/10 volume of WST-8 (Beytime, C0040) reagent was added to each well. The absorbance at 450 nm was detected using a microplate reader (TECAN, F50).

[3] = molecular target: T1, AR protein (Homo sapiens, UniProt P10275, T878A); experiment: AR protein degradation in LNCaP cells (Western blot); conditions: 8 hours; for percent AR protein degradation at a fixed concentration at 0.01 µM / Degradation of AR protein in LNCaP cells, 10 nM (%): 10 nM; for percent AR protein degradation at a fixed concentration at 0.1 µM / Degradation of AR protein in LNCaP cells, 100 nM (%): 100 nM
T1 construct: host or cells: LNCaP FGC
T1 sequence (P10275 1-920 T878A): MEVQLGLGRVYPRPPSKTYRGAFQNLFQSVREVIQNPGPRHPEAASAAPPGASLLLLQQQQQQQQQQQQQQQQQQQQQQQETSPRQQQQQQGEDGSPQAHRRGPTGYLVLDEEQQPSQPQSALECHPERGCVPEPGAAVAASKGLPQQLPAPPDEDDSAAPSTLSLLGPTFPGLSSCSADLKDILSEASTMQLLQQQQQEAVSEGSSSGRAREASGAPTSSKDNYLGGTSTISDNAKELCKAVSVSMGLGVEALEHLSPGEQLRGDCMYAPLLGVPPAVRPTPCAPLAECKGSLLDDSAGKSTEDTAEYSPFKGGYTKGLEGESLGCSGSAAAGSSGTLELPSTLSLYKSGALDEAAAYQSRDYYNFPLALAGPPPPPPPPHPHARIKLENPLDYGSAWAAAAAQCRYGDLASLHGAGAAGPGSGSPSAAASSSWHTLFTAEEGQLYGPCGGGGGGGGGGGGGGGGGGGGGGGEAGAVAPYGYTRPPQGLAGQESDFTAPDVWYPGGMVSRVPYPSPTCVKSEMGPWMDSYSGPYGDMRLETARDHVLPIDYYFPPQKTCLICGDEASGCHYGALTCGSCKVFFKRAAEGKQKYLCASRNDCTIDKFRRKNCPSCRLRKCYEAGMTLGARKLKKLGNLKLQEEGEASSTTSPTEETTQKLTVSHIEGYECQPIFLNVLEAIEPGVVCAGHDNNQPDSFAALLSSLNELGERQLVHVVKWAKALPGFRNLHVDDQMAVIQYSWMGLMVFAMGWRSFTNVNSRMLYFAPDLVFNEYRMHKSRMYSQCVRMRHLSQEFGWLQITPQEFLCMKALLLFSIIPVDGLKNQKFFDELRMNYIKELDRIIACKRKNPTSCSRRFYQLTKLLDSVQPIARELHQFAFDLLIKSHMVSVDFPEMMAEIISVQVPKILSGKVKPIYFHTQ
Experimental: At the same time, the corresponding solvent control was set and cultured for 8 hours. After 8 hours of culture, the culture medium was removed, the cells were washed with PBS, and RIPA lysis buffer containing 1% Protease Inhibitor Cocktail was added. After lysis and centrifugation, the total protein extract was obtained, and the protein concentration in the extract was detected by BCA method. Protein electrophoresis was performed using SDS-PAGE, and then the protein was transferred to a PVDF (Millipore Sigma catalog number PSRP010R5) membrane at a constant voltage of 100V for 60 minutes. The PVDF membrane was placed in a 5% milk powder 1 ×TBST solution and blocked at room temperature for 1 hour. […] The primary antibody solution was discarded and the PVDF membrane was washed with 1×TBST for 5 minutes each time, for three times. […] The secondary antibody solution was discarded and the PVDF membrane was washed with 1 ×TBST for 5 minutes each time, for three times. A dual-color infrared laser imaging system (Licor catalog number Odyssey CLX) was used for Western membrane imaging. The Image Studio software was used to analyze the grayscale of the bands. GAPDH protein bands were also detected for each sample as the reference. The AR protein degradation rate of the compound and the positive control sample was calculated based on the grayscale of the protein bands.

Row | Compound | IC50 [1] [µM] | IC50 [2] [µM] | percent AR protein degradation at a fixed concentration at 0.01 µM [3] [%] | percent AR protein degradation at a fixed concentration at 0.1 µM [3] [%] | Degradation of AR protein in LNCaP cells, 10 nM (%) [3] [%] | Degradation of AR protein in LNCaP cells, 100 nM (%) [3] [%]
1 | C[C@H]1CC2(CCN(c3ccc(N4CCC(CN5CCC6(CC5)CCC5(CC6)COc6c5ccc5c6CN(C6CCC(=O)NC6=O)C5=O)CC4)cc3)CC2)CN1c1ccc(C#N)c(Cl)c1 (stereo partly drawn) [A-P-8, (S)-1'-((1-(4-(6-chloro-7-cyanospiro-spiro[tryptophan-3,4'-piperidin]-1'-yl)benzoyl)piperidin-4-yl)methyl)-N-(2,6-dioxopiperidin-3-yl)-7-fluoro-spiro[tryptophan-2,4'-pyridyl]-6-carboxamide] | 0.005 | 0.2 | -4 | 63 |  | 
2 | N#Cc1cc2c(cc1Cl)OCC1(CCN(C(=O)c3ccc(N4CCC(CN5CCC6(CCc7cc(C(=O)N[C@H]8CCC(=O)NC8=O)c(F)cc7O6)CC5)CC4)cc3)CC1)O2 [A-P-44, (S)-1'-((1-(4-(6-chloro-7-cyano-3H-spiro[benzo[b][1,4]dioxane-2,4'-piperidin]-1'-carbonyl)phenyl)piperidin-4-yl)methyl)-N-(2,6-dioxopiperidin-3-yl)-7-fluorospiro[chroman-2,4'-piperidin]-6-carboxamide] | 2.89 | 0.24 | 20 | 9 |  | 
3 | N#Cc1cc2c(cc1Cl)OC1(CCN(c3ccc(C(=O)N4CCC(CN5CCC6(CCc7cc(C(=O)N[C@H]8CCC(=O)NC8=O)c(F)cc7O6)CC5)CC4)cc3)CC1)CO2 [A-P-46, (S)-1'-((1-(4-(7-chloro-6-cyano-3H-spiro[benzo[b][1,4]dioxo-2,4'-piperidin]-1'-yl)benzoyl)piperidin-4-yl)methyl)-N-(2,6-dioxopiperidin-3-yl)-7-fluorospiro[chroman-2,4'-piperidin]-6-carboxamide] | 3.75 | 0.89 | 4 | 15 |  | 
4 | N#Cc1cc2c(cc1Cl)CC1(CCN(c3ccc(C(=O)N4CCC(CN5CCC6(CCc7cc(C(=O)N[C@H]8CCC(=O)NC8=O)c(F)cc7O6)CC5)CC4)cc3)CC1)CO2 [A-P-51] | 8.44 | 3.36 | -23 | 12 |  | 
5 | N#Cc1cc2c(cc1Cl)OC1(CCN(C(=O)c3ccc(N4CCC(CN5CCC6(CCc7cc(C(=O)N[C@H]8CCC(=O)NC8=O)c(F)cc7O6)CC5)CC4)cc3)CC1)CO2 [A-P-53, (S)-1'-((1-(4-(7-chloro-6-cyano-3H-spiro[benzo[b][1,4]dioxane-2,4'-piperidin]-1'-carbonyl)phenyl)piperidin-4-yl)methyl)-N-(2,6-dioxopiperidin-3-yl)-7-fluorospiro[chroman-2,4'-piperidin]-6-carboxamide] | 1.32 | 0.14 | -11 | -3 |  | 
6 | COc1cc2c(cc1C(=O)N[C@H]1CCC(=O)NC1=O)CCC1(CCN(CC3CCN(c4ccc(N5CCC6(CC5)C[C@H](C)N(c5ccc(C#N)c(Cl)c5)C6)cc4)CC3)CC1)O2 [A-P-54] | 0.007 | 0.91 |  |  | 40 | 74
7 | CC1(CN2CCC3(CCc4cc(C(=O)N[C@H]5CCC(=O)NC5=O)c(F)cc4O3)CC2)CCN(c2ccc(C(=O)N[C@H]3C(C)(C)[C@H](Oc4ccc(C#N)c(Cl)c4)C3(C)C)cc2)CC1 [A-P-55] | 1.05 | 0.95 |  |  | -15 | 15
8 | C[C@H]1CC2(CCN(c3ccc(N4CCC(CN5CCN6c7ccc(C(=O)N[C@H]8CCC(=O)NC8=O)c(F)c7OC[C@H]6C5)CC4)cc3)CC2)CN1c1ccc(C#N)c(Cl)c1 [A-P-61, (R)-3-((1-(4-((S)-2-(3-chloro-4-cyanophenyl)-3-methyl-2,8-diazaspiro[4.5]decan-8-yl)phenyl)piperidin-4-yl)methyl)-N-((S)-2,6-dioxopiperidin-3-yl)-7-fluoro-1,2,3,4,4a,5-hexahydrobenzo[b]pyrazi no[1,2-d][1,4]oxazine-8-carboxamide] | 0.19 | 0.21 | 24 | 79 |  | 
9 | C[C@H]1CC2(CCN(c3ccc(C(=O)N4CCC(CN5CCN6c7ccc(C(=O)N[C@H]8CCC(=O)NC8=O)c(F)c7OC[C@H]6C5)CC4)cc3)CC2)CN1c1ccc(C#N)c(Cl)c1 [A-P-62, (R)-3-((1-(4-((S)-2-(3-chloro-4-cyanophenyl)-3-methyl-2,8-diazaspiro[4.5]decan-8-yl)benzoyl)piperidin-4-yl)methyl)-N-((S)-2,6-dioxopiperidin-3-yl)-7-fluoro-1,2,3,4,4a,5-hexahydrobenzo[b]pyrazi no[1,2-d][1,4]oxazine-8-carboxamide] | 0.45 | 9.54 | 47 | 72 |  | 
10 | COc1cc(O[C@H]2C(C)(C)[C@H](NC(=O)c3ccc(N4CCC(CN5CCN6c7cc(F)c(C(=O)N[C@H]8CCC(=O)NC8=O)cc7OC[C@H]6C5)CC4)cc3)C2(C)C)ccc1C#N [A-P-63] | 0.39 | 0.24 |  |  | 27 | 68
11 | CC1(C)[C@H](NC(=O)c2ccc(N3CCC(CN4CCN5c6ccc(C(=O)N[C@H]7CCC(=O)NC7=O)cc6OC[C@H]5C4)CC3)cc2)C(C)(C)[C@H]1Oc1ccc(C#N)c(Cl)c1 [A-P-77] | 0.0055 | 0.44 |  |  | 20 | 62
12 | COc1cc(O[C@H]2C(C)(C)[C@H](NC(=O)c3ccc(N4CCC(CN5CCC6(CC5)COc5c6ccc(C(=O)N[C@H]6CCC(=O)NC6=O)c5OC)CC4)cc3)C2(C)C)ccc1C#N [A-P-78, 1'-((1-(4-(((1r,3r)-3-(4-cyano-3-methoxyphenoxy)-2,2,4,4-tetramethylcyclobutyl)carbamoyl)phenyl)piperidin-4-yl)methyl)-N-((S)-2,6-dioxopiperidin-3-yl)-7-methoxy-2H-spiro[benzofuran-3,4'-piperidine]-6-carboxamide] | > 10 | 50.7 |  |  | -2 | 14
13 | COc1cc2c(cc1C(=O)N[C@H]1CCC(=O)NC1=O)OCC21CCN(CC2CCN(c3ccc(N4CCC5(CC4)C[C@H](C)N(c4ccc(C#N)c(Cl)c4)C5)cc3)CC2)CC1 [A-P-80, 1'-((1-(4-((S)-2-(3-chloro-4-cyanophenyl)-3-methyl-2,8-diazaspiro[4.5]decan-8-yl)phenyl)piperidin-4-yl)methyl)-N-((S)-2,6-dioxopiperidin-3-yl)-5-methoxy-2H-spiro[benzofuran-3,4'-piperidin]-6-carboxamide] | 0.051 | 1.94 | 22 | 73 |  | 
